Measured values: ChEMBL document CHEMBL1201862, “PubChem BioAssay data set” (2004)
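Interpolation was linear, between the two tested concentrations surrounding the appropriate level; five concentrations were tested over 48 hours in 96-well plates. GI50 marks 50% less growth.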 The source made the active and inactive calls. Cut-off read from the data, not from the text of the source: active = GI50 up to about 1.1 µM and inactive = higher.

Columns and labels:
Experiment in all cases: growth of human tumour cells (NCI), 48 h
SK-MEL-5 = system: SK-MEL-5
LOX IMVI = system: LOX IMVI
SF-539 = system: SF-539
K562 = system: K562
NCI-H23 = system: NCI-H23
NCI-H226 = system: NCI-H226
EKVX = system: EKVX
RXF 393 = system: RXF 393
A498 = system: A498
NCI-H460 = system: NCI-H460
COLO 205 = system: COLO 205
HCT-116 = system: HCT-116
786-0 = system: 786-0
Hs-578T = system: Hs-578T
MOLT-4 = system: MOLT-4
OVCAR-5 = system: OVCAR-5
OVCAR-3 = system: OVCAR-3
SNB-19 = system: SNB-19
T47D = system: T47D

Measured: GI50

CCOC(=O)C(/C(=N\NC(=O)OC)C(=O)Nc1cc(OC)ccc1OC)c1cnc2ccccc2n1 (centres undefined)
inactive: SK-MEL-5 > 100 µM | LOX IMVI > 100 µM | SF-539 > 100 µM | K562 > 100 µM | NCI-H23 > 100 µM | NCI-H226 > 100 µM | EKVX > 100 µM | RXF 393 > 100 µM | A498 > 100 µM | NCI-H460 > 100 µM | COLO 205 > 100 µM | HCT-116 > 100 µM | 786-0 > 100 µM

C/C=C1\CC2C(=O)CCC2C2c3ccccc3OC12 (centres undefined)
inactive: SK-MEL-5 > 100 µM | LOX IMVI > 100 µM | SF-539 > 100 µM | Hs-578T > 100 µM | MOLT-4 > 100 µM | OVCAR-5 > 100 µM | K562 > 100 µM | NCI-H23 > 100 µM | NCI-H226 > 100 µM | EKVX > 100 µM | OVCAR-3 > 100 µM | RXF 393 > 100 µM | NCI-H460 > 100 µM | SNB-19 > 100 µM | COLO 205 > 100 µM | HCT-116 > 100 µM | 786-0 > 100 µM

[N-]=[N+]=C(C(=O)N1CCCC1=O)S(=O)(=O)c1ccccc1
inactive: SK-MEL-5 98.9 µM | LOX IMVI 42.9 µM | SF-539 98.6 µM | Hs-578T 29.4 µM | MOLT-4 50.2 µM | K562 69.5 µM | NCI-H23 72.9 µM | EKVX > 100 µM | OVCAR-3 76 µM | RXF 393 70.6 µM | NCI-H460 39 µM | SNB-19 > 100 µM | COLO 205 > 100 µM | HCT-116 80.4 µM | 786-0 97.9 µM

COc1cccc(-n2nnc3c(N)nc(N)nc32)c1
inactive: SK-MEL-5 > 100 µM | LOX IMVI > 100 µM | SF-539 > 100 µM | T47D > 100 µM | MOLT-4 > 100 µM | OVCAR-5 > 100 µM | K562 > 100 µM | NCI-H23 28.9 µM | NCI-H226 > 100 µM | EKVX 12.3 µM | OVCAR-3 > 100 µM | A498 > 100 µM | NCI-H460 94.4 µM | SNB-19 48.8 µM | COLO 205 > 100 µM | HCT-116 > 100 µM | 786-0 > 100 µM

C1CC[C@H]2SSC3CCCC[C@H]3SSC2C1 (some centres undefined)
inactive: SK-MEL-5 > 100 µM | LOX IMVI > 100 µM | SF-539 > 100 µM | T47D > 100 µM | MOLT-4 > 100 µM | OVCAR-5 > 100 µM | K562 > 100 µM | NCI-H23 > 100 µM | EKVX > 100 µM | OVCAR-3 > 100 µM | NCI-H460 > 100 µM | SNB-19 > 100 µM | COLO 205 > 100 µM | HCT-116 > 100 µM | 786-0 > 100 µM

CCOC(=O)Cc1csc2[n+]1C(=O)/C(=C\c1cccc(Cl)c1Cl)S2
inactive: SK-MEL-5 8.93 µM | LOX IMVI 18.4 µM | SF-539 22.3 µM | Hs-578T 29.5 µM | MOLT-4 10.3 µM | OVCAR-5 32.6 µM | NCI-H23 13.3 µM | NCI-H226 14.8 µM | EKVX 17.2 µM | OVCAR-3 7.05 µM | RXF 393 16.7 µM | NCI-H460 14.9 µM | SNB-19 21 µM | COLO 205 1.7 µM | HCT-116 12.7 µM | 786-0 15.8 µM

CCOCc1c(C)cc(C)c(C2C(C(=O)c3ccccc3)N3c4ccccc4C=CC3C2(C#N)C(=O)OCC)c1C (centres undefined)
inactive: SK-MEL-5 14.8 µM | LOX IMVI 35.9 µM | Hs-578T > 100 µM | MOLT-4 86.5 µM | OVCAR-5 64.9 µM | K562 > 100 µM | NCI-H23 44.4 µM | EKVX 16.1 µM | OVCAR-3 17.4 µM | RXF 393 46 µM | A498 > 100 µM | NCI-H460 27.9 µM | SNB-19 > 100 µM | COLO 205 19.1 µM | HCT-116 26.7 µM | 786-0 45 µM

CCCCOC(=O)C(=O)C(CC(CC)C(=O)c1ccccc1)C(=O)C=C(C)C (centres undefined)
inactive: SK-MEL-5 > 100 µM | LOX IMVI > 100 µM | SF-539 > 100 µM | Hs-578T > 100 µM | MOLT-4 > 100 µM | OVCAR-5 > 100 µM | NCI-H23 > 100 µM | NCI-H226 > 100 µM | EKVX > 100 µM | OVCAR-3 > 100 µM | RXF 393 > 100 µM | NCI-H460 > 100 µM | SNB-19 > 100 µM | COLO 205 > 100 µM | HCT-116 > 100 µM | 786-0 > 100 µM

CN(CC(=O)O)c1ncc2c(n1)-c1ccccc1SC2
inactive: SK-MEL-5 > 100 µM | LOX IMVI > 100 µM | SF-539 > 100 µM | Hs-578T > 100 µM | MOLT-4 > 100 µM | OVCAR-5 > 100 µM | NCI-H23 > 100 µM | EKVX > 100 µM | A498 > 100 µM | NCI-H460 > 100 µM | SNB-19 > 100 µM | COLO 205 > 100 µM | HCT-116 > 100 µM | 786-0 > 100 µM

Cc1nc2ccc(Cl)cc2c(-n2ccnc2)c1CCn1ccnc1
inactive: SK-MEL-5 20.7 µM | LOX IMVI 21 µM | SF-539 61.4 µM | Hs-578T 12.9 µM | OVCAR-5 21.5 µM | K562 23.2 µM | NCI-H23 27.1 µM | NCI-H226 16.4 µM | OVCAR-3 32.1 µM | RXF 393 14.1 µM | A498 21.5 µM | NCI-H460 23.2 µM | SNB-19 53.7 µM | COLO 205 18 µM | HCT-116 23.8 µM | 786-0 1.69 µM

COc1c(C)c(C/C=C(\C)CC/C=C(\C)CC/C=C(\C)CCC=C(C)C)c(OC)c(OC)c1OC
inactive: SK-MEL-5 > 100 µM | LOX IMVI > 100 µM | SF-539 > 100 µM | Hs-578T > 100 µM | MOLT-4 > 100 µM | OVCAR-5 > 100 µM | K562 > 100 µM | NCI-H23 > 100 µM | EKVX > 100 µM | OVCAR-3 > 100 µM | RXF 393 > 100 µM | NCI-H460 > 100 µM | SNB-19 > 100 µM | COLO 205 > 100 µM | HCT-116 > 100 µM | 786-0 > 100 µM

Cc1ccc(S(=O)(=O)NC(=O)NCCc2c[nH]cn2)cc1
inactive: SK-MEL-5 > 100 µM | LOX IMVI > 100 µM | SF-539 > 100 µM | Hs-578T > 100 µM | MOLT-4 > 100 µM | OVCAR-5 > 100 µM | K562 > 100 µM | NCI-H23 > 100 µM | NCI-H226 > 100 µM | EKVX > 100 µM | OVCAR-3 > 100 µM | RXF 393 > 100 µM | A498 > 100 µM | NCI-H460 > 100 µM | SNB-19 > 100 µM | COLO 205 > 100 µM | HCT-116 > 100 µM | 786-0 > 100 µM
